Literature values in patent US8603452B1, “Method of preventing biofouling using an anti-fouling bio-hydrogel composition” (University of South Florida, priority 2007, dated 2013).
Like-named read-outs stand apart in the source and are kept apart here.

Columns and labels:
biofouling = settings: hydrogel coatings containing BAC, marine environment

benzalkonium chloride [BAC]
diffusion coefficient (loss of BAC from hydrogel film, period from 12 to 50 hours, 13° C., freshwater): 7.3×10^−8 cm^2 s^−1
diffusion coefficient (rate of loss of the residual BAC from hydrogel film, 15° C.): 5.7×10^−10 cm^2 s^−1
prevention of the development of biofouling (duration) (biofouling): up to 12 weeks
